Reference: PMC10072326, “Promising anticancer agents based on 8-hydroxyquinoline hydrazone copper(II) complexes” (Frontiers in Chemistry, 2023)

Assays:
[1] = target: bovine serum albumin (BSA) (Bos taurus, UniProt P02769); test: BSA fluorescence quenching; type: binding; set-up: Affinity constant K ± SD: unit not given here; details: for Affinity constant K ± SD: fluorescence quenching, HypSpec2014, 1:1 species assumed
Protocol: To evaluate the interaction of the compounds, both organic and Cu(II) complexes, with bovine serum albumin (BSA) fluorescence spectra were measured. In a typical fluorescence experiment, to a solution of 1.5 μM of BSA in the same buffer, successive aliquots of a stock solution of each compound in DMSO were added directly to the cuvette (optical path 1.0 cm). The fluorescence emission was recorded between 310 and 600 nm with excitation at 295 nm. The final DMSO % was kept below 2% (v/v). The Stern-Volmer plots were built using the emission at 340 nm and blank samples (in the absence of BSA) with the same concentration of the complexes were recorded and subsequently subtracted from the corresponding emission spectra containing the fluorophore. Moreover, the fluorescence emission intensity was corrected for reabsorption and inner filter effects using UV-Vis absorption data recorded for each sample, since all complexes absorb in the measured wavelength range (19, 20).
The interaction of the organic compounds and Cu(II) complexes with BSA was monitored by studying the quenching of albumin’s fluorescence emission with increasing concentrations of the complexes (25). Overall, the intensity of the Trp emission decreases with the addition of the complexes, except for 8 (see Figs. S19). The Stern-Volmer relationship was used to analyse the fluorescence quenching process:
where I0 and I are the fluorescence intensities in the absence and in the presence of quencher, kq is the bimolecular quenching rate, τ0 is the fluorophore lifetime in the absence of the quencher (6.22 ns) (26) and [Q] is the quencher concentration. […] This linear relationship is obeyed for all complexes except 5, where a downward curvature is observed. This can be an indication of two distinct binding sites, corresponding to two populations of fluorophores, one being accessible and other inaccessible or buried inside the protein. In such cases, the Stern-Volmer relation can be modified to (27):
where ΔI = I0 – I, Ka is the Stern-Volmer constant for the accessible fraction and fa is the fraction of accessible fluorophore. […] As first approximation, the total concentration of quencher was used to check the quenching mechanism. […] As all systems presented high absorbance values in the measured range of wavelengths, no excess of quencher was used and, therefore, 1:1 species will be assumed for these interactions.

[2] = system: calf thymus DNA (ctDNA); test: ctDNA thermal denaturation; type: binding; details: for ΔTm: equimolar amounts of compound and DNA, HEPES 0.01 M, pH 7.4; for melting temperature Tm of ctDNA with compound: equimolar mixtures (25 µM), 10 mM HEPES pH 7.4, 1.5% DMSO
Source text: Nucleic acids are potential targets for metallodrugs and, consequently, evaluation of the interactions of the compounds with DNA and corresponding binding strength is relevant under the scope of this work. Thermal denaturation is a useful technique to measure the stability of the secondary structure of DNA (29). Under the chosen experimental conditions (HEPES, 0.01 M, pH 7.4), it is possible to follow the denaturation of calf thymus DNA (ctDNA) double strand.

[3] = system: A-375 cells; test: Sulforhodamine B (SRB) cell viability assay; type: cell-based; details: 72 h
[4] = system: A-549 cells; test: Sulforhodamine B (SRB) cell viability assay; type: cell-based; details: 72 h
[5] = system: S. aureus ATCC 25928; test: MIC determination; type: cell-based, Staphylococcus aureus; details: S. aureus ATCC 25928 (sensitive); 18 h
Protocol: (§1) Wild-type Escherichia coli K-12 AG100 strain [argE3 thi-1 rpsL xyl mtl Δ(gal-uvrB) supE44] expressing the AcrAB TolC efflux pump at its basal level and Klebsiella pneumoniae ATCC 49619 Gram-negative strains were studied in the experiments. Sensitive (ATCC 25928) and the methicillin-resistant (MRSA 272123) subspecies of Staphylococcus aureus were used as Gram-positive strains in the assays.
(§2) Minimum inhibitory concentration (MIC) values of selected compounds were determined in 96-well plates based on the Clinical and Laboratory Standard Institute guidelines (CLSI guidelines). The stock solutions of the compounds were dissolved in DMSO using 1.3 μL of Mueller Hinton Broth, and then two-fold serial dilutions were performed. The starting concentration of the compounds was 100 μM. Then 10^‒4 dilution of an overnight bacterial culture in 100 μL of medium was added to each well, except for the medium control wells.

[6] = system: Escherichia coli K-12 AG100; test: MIC determination; type: cell-based; details: E. coli; 18 h
Protocol: as §1, §2

[7] = system: Klebsiella pneumoniae ATCC 49619; test: MIC determination; type: cell-based; details: K. pneumoniae; 18 h
Protocol: as §1, §2

Sequence of bovine serum albumin (BSA) (P02769 25-607): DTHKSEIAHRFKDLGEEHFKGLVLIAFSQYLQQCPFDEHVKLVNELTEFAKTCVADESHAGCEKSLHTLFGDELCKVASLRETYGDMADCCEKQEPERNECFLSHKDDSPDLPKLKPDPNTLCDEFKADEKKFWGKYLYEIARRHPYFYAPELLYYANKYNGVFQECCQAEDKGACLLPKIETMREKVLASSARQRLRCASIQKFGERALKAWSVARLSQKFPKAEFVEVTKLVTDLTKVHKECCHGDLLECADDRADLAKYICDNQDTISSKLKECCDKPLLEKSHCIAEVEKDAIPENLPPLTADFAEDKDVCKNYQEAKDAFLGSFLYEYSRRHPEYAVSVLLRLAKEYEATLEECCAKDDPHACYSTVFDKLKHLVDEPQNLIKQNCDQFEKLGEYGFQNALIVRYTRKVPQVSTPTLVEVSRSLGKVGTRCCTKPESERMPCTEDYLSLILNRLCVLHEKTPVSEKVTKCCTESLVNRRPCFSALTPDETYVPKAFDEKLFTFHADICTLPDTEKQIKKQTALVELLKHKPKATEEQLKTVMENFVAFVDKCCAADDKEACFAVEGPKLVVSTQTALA

| SMILES | Affinity constant K ± SD [1] | Stern-Volmer constant for the accessible fraction Ka ([1]; modified Stern-Volmer) | fraction of accessible fluorophore fa ([1]; modified Stern-Volmer) | ΔTm [2] | melting temperature Tm of ctDNA with compound [2] | IC50 [3] | IC50 [4] | MIC [5] | MIC [6] | MIC [7] |
| --- | --- | --- | --- | --- | --- | --- | --- | --- | --- | --- |
| COc1ccc(C([O-])=NN=Cc2ccc3cccc([O-])c3n2)cc1.[Cu+2] [Complex 5, [Cu(L^5)]3] | (1.05 ± 0.04) × 10^5 | 2.1e+06 M⁻¹ | 0.24 | 17.7 °C | 77.9 ± 1.3 °C | 3.4 ± 0.1 µM | 5.1 ± 0.01 µM | 100 µM | > 100 µM | > 100 µM |
| [Cu+2].[O-]C(=NN=Cc1ccc2cccc([O-])c2n1)c1ccc(F)cc1 [Complex 3, [Cu(L^3)]3] | (3.4 ± 0.7) × 10^5 |  |  | 13.0 °C | 73.2 ± 1.7 °C | 5.1 ± 0.3 µM | 8.9 ± 0.2 µM | 100 µM | > 100 µM | > 100 µM |
| CC(=O)[O-].O=C(NN=Cc1ccc2cccc([O-])c2n1)c1ccccc1.[Cu+2] [Complex 1, [Cu(HL^1)(AcO)]] | (8.4 ± 6.6) × 10^7 |  |  | >25.0 °C |  | 2.7 ± 0.03 µM | 4.2 ± 0.2 µM | 50 µM | > 100 µM | > 100 µM |
